Measurements taken from paper PMC9610492, “BRD9 Inhibition by Natural Polyphenols Targets DNA Damage/Repair and Apoptosis in Human Colon Cancer Cells” (Nutrients, 2022).
Where two headings read alike, the source gives them in different places.

Experiments:
Format in all cases: binding
[1] = target: T1, BRD9 (bromodomain-containing protein 9) (Homo sapiens, UniProt Q9H8M2); experiment: BROMOscan at […], blinded positive control
T1 sequence (Q9H8M2 1-597): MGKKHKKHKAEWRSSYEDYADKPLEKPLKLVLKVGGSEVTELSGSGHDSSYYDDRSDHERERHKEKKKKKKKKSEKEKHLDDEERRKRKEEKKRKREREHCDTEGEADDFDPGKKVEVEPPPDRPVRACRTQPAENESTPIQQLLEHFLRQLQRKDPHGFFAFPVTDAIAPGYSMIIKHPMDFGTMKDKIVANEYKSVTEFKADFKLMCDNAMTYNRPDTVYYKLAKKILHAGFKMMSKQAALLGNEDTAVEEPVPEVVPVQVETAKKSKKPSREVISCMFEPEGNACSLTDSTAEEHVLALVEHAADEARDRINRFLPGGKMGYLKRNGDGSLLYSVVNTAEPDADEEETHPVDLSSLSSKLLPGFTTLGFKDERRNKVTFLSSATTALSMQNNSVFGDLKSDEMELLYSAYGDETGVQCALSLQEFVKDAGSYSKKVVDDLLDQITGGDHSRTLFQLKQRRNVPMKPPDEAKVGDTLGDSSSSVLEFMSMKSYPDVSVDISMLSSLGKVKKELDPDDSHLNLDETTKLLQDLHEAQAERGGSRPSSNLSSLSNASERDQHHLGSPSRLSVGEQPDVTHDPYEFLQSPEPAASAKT

[2] = target: T1, BRD9 (bromodomain-containing protein 9); experiment: ITC with purified BRD9 (N = […]); BROMOscan […] inhibition at […]
[3] = target: T1, BRD9 (bromodomain-containing protein 9); experiment: as above; remark: listed apart in the source

SMILES: CCn1cc(-c2cccc(C(F)(F)F)c2)c2sc(C(=N)NC3CCS(=O)(=O)CC3)cc2c1=O [iBRD9]
- inhibition at 10 µM [1]: 99%

SMILES: O=c1cc(-c2ccc(O)c(O)c2)oc2c([C@@H]3O[C@H](CO)[C@@H](O)[C@H](O)[C@H]3O)c(O)cc(O)c12 [Orientin]
- Kd [2]: 20 µM

SMILES: O=C(CCc1ccc(O)c(O)c1)c1c(O)cc(O)c([C@@H]2O[C@H](CO)[C@@H](O)[C@H](O)[C@H]2O)c1O [Aspalathin]
- Kd [3]: 20 µM
